In patent US5217961A, “Condensed quinoline system N-glycosides” (Mect Corporation, priority 1988, dated 1993):

Legend:
KB cells = test: Function for inhibiting multiplication of KB cell (in vitro test); assay type: cell-based, human; settings: compound added day 1, cells counted day 4, effective when ED50 < 4 μg/ml, 4320 min
Method: KB cells, carcinomatous cell tumors, were transferred to in vitro floatation incubator systems, and added respectively with compounds of Examples 1 to 33. The results of cultivation added with these compounds were compared with the results of the control which was not added with any compound.
Cell used: KB Cell (Originating from human mouth epidermal cancer)
Culture medium: Eagles minimal essential medium (MEM) supplemented with 10% calf serum
Cultivation: 37° C. carbon dioxide gas incubator (5% CO2)
Day 0: KB cells were diluted in the culture medium to adjust the KB cell density to 2×10^4 /ml. Three ml of the cell suspension was inoculated in each of 60 mm plastic dishes. Two dishes per standard dosage were used.
Day 1: Test compound was added to the medium so that the final concentrations were set to 100, 30, 10, 3 and 1 μg/ml.
Day 4: Cells were scraped off from the dish using trypsin, and the cell number was countered using a Corter counter.
In generally accordance with the stipulations set forth by the National Cancer Institute (NCI) U.S.A., the concentration of compound necessary for exerting 50% growth inhibition (ED50) compared to the contral was determined.

P-388 = test: Effect on prolongation of life span in cancer implanted mouse (P-388); assay type: in vivo, CDF mouse; settings: day 1 and day 5, P-388 i.p.; for Ratio of Life Prolongation (%) (T/C %): effective when T/C >= 120%; for cure (mice cured / mice in group): 6 mice/group
Method: Animal used: CDF mouse (6 mice/group)
Number of implanted cells: 10^6 cells/mouse
Day of administration: Day 1 and Day 5
Dosage: LD50 or 400 mg/kg/day at the maximum

[1] = J. Med. Chem. vol.17, 922 (1974); cited from earlier work

Compound	Conc. (ED50), concentration necessary for exerting 50% growth inhibition of KB cells (KB cells) [µg/mL]	Ratio of Life Prolongation (%) (T/C %) (P-388; 25 mg/kg)	Ratio of Life Prolongation (%) (T/C %) (P-388; 50 mg/kg)	Ratio of Life Prolongation (%) (T/C %) (P-388; 100 mg/kg)	Ratio of Life Prolongation (%) (T/C %) (P-388; 200 mg/kg)	Ratio of Life Prolongation (%) (T/C %) (P-388; 400 mg/kg)	carcinostatic function [1]	cure (mice cured / mice in group) (P-388; 12.5 mg/kg)	Ratio of Life Prolongation (%) (T/C %) (P-388; 12.5 mg/kg)	cure (mice cured / mice in group) (P-388; 25 mg/kg)
6-(4-methanesulfonamide-anilino)-indeno[3,2-b]quinoline [Compound 5]	< 0.3	140	135	163	172	165				
COc1cc(NS(C)(=O)=O)ccc1Nc1c2ccccc2nc2ccccc12 [Amsacrine, N-[4-(9-acridylamino)-3-methoxyphenyl)methanesulfonamide]							highest carcinostatic function			
COc1cc(NS(C)(=O)=O)ccc1Nc1c2ccccc2nc2c1[nH]c1ccc(NC3OC(COC(C)=O)C(OC(C)=O)C(OC(C)=O)C3OC(C)=O)cc12 (stereo not drawn) [Compound 23, N-{4-[(7-(2,3,4,6-tetra-O-acetylglycosyl-1-amino)-10H-indolo[3,2-b]quinoline-11-yl)amino]-3-methoxyphenyl} methanesulfonamide]	< 0.3	148	58					2/6	300	1/6
COc1cc(NS(C)(=O)=O)ccc1Nc1c2ccccc2nc2c1[nH]c1ccc(NC3OC(CO)C(O)C(O)C3O)cc12 (stereo not drawn) [Compound 24, N-{4-[(7-(glycosyl-1-amino)-10H-indolo[3,2-b]quinoline-11-yl)amino]-3-methoxyphenyl} methanesulfonamide]	< 0.3	145	90					2/6	213	
